Results on seven compounds are retold here after patent US20250230193A1, “CYCLIC COMPOUND HAVING SELECTIVE KRAS INHIBITORY EFFECT ON HRAS AND NRAS” (CHUGAI SEIYAKU KABUSHIKI KAISHA, priority 2022, published 2025).

Where a SMILES comes first, the peptide text is derived from it. Bridges are numbered along the chain shown (N, C = ends). [ ]: non-standard residue; d: D form. The star is where a group is joined. hPhe(3-Cl-4-CF3) = N[C@@H](CCc1ccc(C(F)(F)F)c(Cl)c1)C(=O)O; NPrPhe(4-CF3) = CCCN[C@@H](Cc1ccc(C(F)(F)F)cc1)C(=O)O; NEtPhe(4-Me) = CCN[C@@H](Cc1ccc(C)cc1)C(=O)O; NMeGly(cPent) = CN[C@H](C(=O)O)C1CCCC1; Hyp = O=C(O)[C@@H]1C[C@@H](O)CN1; NMeD = CN[C@@H](CC(=O)O)C(=O)O; NMeL = CN[C@@H](CC(C)C)C(=O)O; Morpholide = C1CN(*)CCO1; Ac5c = NC1(C(=O)O)CCCC1; Sar = CNCC(=O)O

Experiment [1] deals with GDP-bound HRAS wild-type protein (Homo sapiens, UniProt P01112). The experiment in a line: Binding to HRAS by surface plasmon resonance (SPR), Single Cycle Kinetics. The following applies: SPR. Background: SPR reads the build-up and loss of mass on a sensor chip optically.
GDP-bound HRAS wild-type protein, sequence (P01112 whole entry): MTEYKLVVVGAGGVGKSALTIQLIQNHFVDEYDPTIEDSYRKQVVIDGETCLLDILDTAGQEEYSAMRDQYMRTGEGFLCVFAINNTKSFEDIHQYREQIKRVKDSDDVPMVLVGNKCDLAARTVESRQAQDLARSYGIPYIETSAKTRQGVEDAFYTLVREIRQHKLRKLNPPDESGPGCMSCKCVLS
For experiment [2], the target named is GDP-bound NRAS wild-type protein (Homo sapiens, UniProt P01111). The experiment in a line: Binding to NRAS by surface plasmon resonance (SPR), Single Cycle Kinetics. The following applies: SPR.
GDP-bound NRAS wild-type protein, sequence (P01111 whole entry): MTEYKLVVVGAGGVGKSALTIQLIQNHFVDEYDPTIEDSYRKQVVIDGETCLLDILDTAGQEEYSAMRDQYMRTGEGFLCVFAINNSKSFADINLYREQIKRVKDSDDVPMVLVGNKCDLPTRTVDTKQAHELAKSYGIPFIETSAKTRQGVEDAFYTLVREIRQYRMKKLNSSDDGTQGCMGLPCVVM
The mark [3] stands for this setting: KD ratio, GDP-bound HRAS wild-type vs GDP-bound KRAS wild-type.
[4] abbreviates: KD ratio, GDP-bound NRAS wild-type vs GDP-bound KRAS wild-type.

For the compound `CCO[C@@H]1C[C@H]2C(=O)NC3(CC(C)(C)C3)C(=O)N(C)[C@@H](C3CCCC3)C(=O)N(C)[C@H](C(=O)N(C)CC)CC(=O)N(C)[C@@H](CC3CC3)C(=O)N[C@@H]([C@@H](C)CC)C(=O)N(C)CC(=O)N(C)[C@H]3C/C=C\CCN(C3=O)[C@@H](Cc3ccc(C(F)(F)F)cc3)C(=O)N(C)CC(=O)N[C@@H](CCc3cc(F)c(C(F)(F)F)c(F)c3)C(=O)N2C1` [PP1648], the “HRAS/KRAS (ratio of KD value for HRAS to KD value for KRAS)” value in experiment [1] (setting [3]) was “A (a compound having 10 or more and less than 20 is denoted as A)”. Further, in experiment [2] (setting [4]), the “NRAS/KRAS (ratio of KD value for NRAS to KD value for KRAS)” value was “A (a compound having 10 or more and less than 20 is denoted as A)”.

`CCO[C@@H]1C[C@H]2C(=O)NC3(CCC3)C(=O)N(C)[C@@H](C3CCCC3)C(=O)N(C)[C@H](C(=O)N3CCOCC3)CC(=O)N(C)[C@@H](CC(C)C)C(=O)N[C@@H](C3CC(F)(F)C3)C(=O)N(C)CC(=O)N(C)[C@H]3CCCCN(C3=O)[C@@H](Cc3ccc(C(F)(F)F)cc3)C(=O)N(C)CC(=O)N[C@@H](CCc3cc(F)c(C(F)(F)F)c(F)c3)C(=O)N2C1` [PP0807]: in experiment [1], the “HRAS/KRAS (ratio of KD value with respect to GDP-bound HRAS wild-type protein to KD value with respect to KRAS)” value was “B (a compound having 3 or more and less than 10 is denoted as B)”. Besides, in experiment [2], the “NRAS/KRAS (ratio of KD value with respect to GDP-bound NRAS wild-type protein to KD value with respect to KRAS)” value was “B (a compound having 3 or more and less than 10 is denoted as B)”.

On to `CC[C@H](C)[C@@H]1NC(=O)[C@H](CC(C)C)N(C)C(=O)C[C@@H](C(=O)N(C)C)N(C)C(=O)[C@H](C2CCCC2)N(C)C(=O)C2(CCC2)NC(=O)[C@@H]2CC(F)(F)CN2C(=O)[C@H](CCc2cc(F)c(C(F)(F)F)c(F)c2)NC(=O)CN(C)C(=O)[C@H](Cc2ccc(C(F)(F)F)cc2)N2CCCC[C@@H](C2=O)N(C)C(=O)CN(C)C1=O` [PP0577], for which the “HRAS/KRAS (ratio of KD value with respect to GDP-bound HRAS wild-type protein to KD value with respect to KRAS)” value in experiment [1] is “C (A compound having a KD ratio of 0.1 or more and less than 3 is denoted as C)”. In addition, the “NRAS/KRAS (ratio of KD value with respect to GDP-bound NRAS wild-type protein to KD value with respect to KRAS)” value in experiment [2] was “C (A compound having a KD ratio of 0.1 or more and less than 3 is denoted as C)”.

As to `CC[C@H](C)[C@@H]1NC(=O)[C@H](CC(C)C)N(C)C(=O)C[C@@H](C(=O)N2CCOCC2)N(C)C(=O)[C@H](C2CCCC2)N(C)C(=O)C2(CCCC2)NC(=O)[C@@H]2C[C@@H](O)CN2C(=O)[C@H](CCc2ccc(C(F)(F)F)c(Cl)c2)NC(=O)CN(C)C(=O)[C@H](Cc2ccc(C)cc2)N(CC)C(=O)CN(C)C(=O)CN(C)C1=O` [PP0041] ([NMeL]I[Sar][Sar][NEtPhe(4-Me)][Sar][hPhe(3-Cl-4-CF3)][Hyp][Ac5c][NMeGly(cPent)][NMeD]-Morpholide; lactam N-11), the “HRAS/KRAS (ratio of KD for GDP-bound HRAS wild-type to KD for KRAS)” value in experiment [1] was “C (A compound having a KD ratio of 0.1 or more and less than 3 is denoted as C)”. The “NRAS/KRAS (ratio of KD for GDP-bound NRAS wild-type to KD for KRAS)” value in experiment [2] is “B (a compound having 3 or more and less than 10 is denoted as B)”.

For `CC[C@H](C)[C@@H]1NC(=O)[C@H](COC)N(C)C(=O)C[C@@H](C(=O)N2CCOCC2)N(C)C(=O)[C@H](C2CCCC2)N(C)C(=O)C2(CCC2)NC(=O)[C@@H]2C[C@H](OC)CN2C(=O)[C@H](CCc2cc(F)c(C(F)(F)F)c(F)c2)NC(=O)CN(C)C(=O)[C@H](Cc2ccc(C(F)(F)F)cc2)N2CCCCC[C@@H](C2=O)N(C)C(=O)CN(C)C1=O` [PP0836], the “HRAS/KRAS (ratio of KD value with respect to HRAS to KD value with respect to KRAS)” value in experiment [1] (setting [3]) was “B (a compound having 3 or more and less than 10 is denoted as B)”. In addition, in experiment [2] (setting [4]), the “NRAS/KRAS (ratio of KD value with respect to NRAS to KD value with respect to KRAS)” value was “B (a compound having 3 or more and less than 10 is denoted as B)”.

Turning to `CCCCO[C@@H]1C[C@H]2C(=O)NC3(CCC3)C(=O)N(C)[C@@H](C3CCCC3)C(=O)N(C)[C@H](C(=O)N3CCOCC3)CC(=O)N(C)[C@@H](CC(C)C)C(=O)N[C@@H]([C@@H](C)CC)C(=O)N(C)CC(=O)N(C)[C@H]3CCCCN(C3=O)[C@@H](Cc3ccc(C(F)(F)F)cc3)C(=O)N(C)CC(=O)N[C@@H](CCc3cc(F)c(C(F)(F)F)c(F)c3)C(=O)N2C1` [PP1013], the “HRAS/KRAS (ratio of KD value with respect to HRAS to KD value with respect to KRAS)” value in experiment [1] (setting [3]) was “C (A compound having a KD ratio of 0.1 or more and less than 3 is denoted as C)”. Besides, in experiment [2] (setting [4]), the “NRAS/KRAS (ratio of KD value with respect to NRAS to KD value with respect to KRAS)” value was “C (A compound having a KD ratio of 0.1 or more and less than 3 is denoted as C)”.

As for `CCCN1C(=O)CN(C)C(=O)CN(C)C(=O)[C@H]([C@@H](C)CC)NC(=O)[C@H](CC(C)C)N(C)C(=O)C[C@@H](C(=O)N2CCOCC2)NC(=O)[C@H](C2CCCC2)N(C)C(=O)C2(CCCC2)NC(=O)[C@@H]2C[C@@H](OCC)CN2C(=O)[C@H](CCc2ccc(C(F)(F)F)c(Cl)c2)NC(=O)CN(C)C(=O)[C@@H]1Cc1ccc(C(F)(F)F)cc1` [PP0323] ([NMeL]I[Sar][Sar][NPrPhe(4-CF3)][Sar][hPhe(3-Cl-4-CF3)][Hyp](Et)[Ac5c][NMeGly(cPent)]D-Morpholide; lactam N-11), the “HRAS/KRAS (ratio of KD for GDP-bound HRAS wild-type to KD for KRAS)” value in experiment [1] was “B (a compound having 3 or more and less than 10 is denoted as B)”. Moreover, the “NRAS/KRAS (ratio of KD for GDP-bound NRAS wild-type to KD for KRAS)” value in experiment [2] is “B (a compound having 3 or more and less than 10 is denoted as B)”.
